Assay results from patent US20210371388A1, “Bicyclic Carboxamide with Exocyclic Urea Derivatives as Antivirals for the Treatment of HBV Infection” (Baruch S. Blumberg Institute, priority 2020, published 2021).
pEC50: −log10 of the molar value.

test system: HBV replication in AML12HBV10 cells; test: Antiviral efficacy: HBV DNA in AML12HBV10 cell lysates by dot-blot hybridization; type: cell-based; conditions: Hepatitis B virus, AML12HBV10, 48 h, read-out: Antiviral activity (EC50), AML12HBV10 cells, 48 hours treatment, concentration that reduces the amount of HBV DNA by 50%
Description: The antiviral efficacy of the compounds of the disclosure, as presented in Table 2, were determined in AML12HBV10 cells. AML12HBV10 is an immortalized murine hepatocyte (AML12)-derived stable cell line that supports robust HBV replication in a tetracycline inducible manner (Xu et al.). The cells were seeded into 96 well plates at a density of 2×10^4 cells per well and cultured in DMEM/F12 media with 10% fetal bovine serum in the absence of tetracycline to allow pgRNA transcription and HBV DNA replication. One day after seeding, cells were left untreated or treated with a serial dilution of testing compounds, ranging from 50 μM to 0.39 μM, for 48 hours. Cells were then lysed by adding into each well of 100 μl lysis buffer containing 10 mM Tris-HCl (pH 7.6), 1 mM EDTA, 100 mM NaCl and 1% NP-40 and incubated at 37° C. for 30 minutes. Half amount (50 μλ) of cell lysate from each well was combined with equal volume of denaturing solution containing 0.5N NaOH and 1.5M NaCl. After 5 minute incubation, 100 μl of neutralization solution (1M Tris-HCl, pH 7.4, 1.5M NaCl) was added into each well. The denatured cell lysates (totally 200 μl) were applied onto Nylon membrane using 96-well dot-blot manifold (Biorad). HBV DNA in the cell lysates were determined by dot-blot hybridization with alpha-^32P-UTP-labelled riboprobe specific for HBV minus strand DNA. The antiviral efficacy of a compound of the disclosure was expressed as the concentration that reduces the amount of HBV DNA by 50% (EC50).

Structure (SMILES)	pEC50
O=C1CCN(C(=O)Nc2ccc(F)c(Cl)c2)c2ccccc21 [Entry 1]	5.88
O=C1CCN(C(=O)Nc2ccc(F)c(Cl)c2)[C@H]2CCCC[C@H]12 [Entry 3]	6.38
O=C(Nc1ccc(F)c(Cl)c1)N1CCc2ccccc21 [Entry 4]	6.44
O=C(Nc1ccc(F)c(Cl)c1)N1CCOc2ccccc21 [Entry 5]	6.28
O=C(Nc1ccc(F)c(Cl)c1)N1CCCCc2ccccc21 [Entry 6]	4.91
O=C(Nc1ccc(F)c(Cl)c1)N1CCCc2ccccc21 [Entry 8]	5.81
O=C(Nc1ccc(F)c(Cl)c1)N1CCNc2ccccc21 [Entry 9]	6.30
O=C1CCCN(C(=O)Nc2ccc(F)c(Cl)c2)c2ccccc21 [Entry 10]	≤ 5.00
Cc1ccc2c(c1)CCN2C(=O)Nc1ccc(F)c(Cl)c1 [Entry 11]	5.28
O=C(Nc1ccc(F)c(Cl)c1)N1CCc2cc(F)c(F)cc21 [Entry 12]	5.68
O=C1CCN(C(=O)Nc2cc(F)c(F)c(F)c2)[C@H]2CCCC[C@@H]12 [Entry 13]	5.62
O=C1CCN(C(=O)Nc2cc(F)c(F)c(F)c2)[C@H]2CCCC[C@H]12 [Entry 14]	5.46
CC1(O)CCN(C(=O)Nc2ccc(F)c(Cl)c2)C2CCCCC21 (centres unmarked) [Entry 15]	5.19
O=C(Nc1cc(F)c(F)c(F)c1)N1CCC(O)C2CCCCC21 (centres unmarked) [Entry 19]	≤ 5.00
O=C1CCN(C(=O)Nc2cc(F)c(F)c(Cl)c2)C2CCCCC12 (centres unmarked) [Entry 20]	5.62
O=C(Nc1cc(F)c(F)c(F)c1)N1CCNc2ccccc21 [Entry 21]	6.20
O=C1CN(C(=O)Nc2cc(F)c(F)c(F)c2)c2ccccc2N1 [Entry 22]	≤ 5.00
O=C1CN(C(=O)Nc2ccc(F)c(Cl)c2)c2ccccc2N1 [Entry 23]	≤ 5.00
O=C(Nc1ccc(F)c(Cl)c1)N1CCN(CCCCF)c2ccccc21 [Entry 24]	≤ 5.00
O=C(Nc1cc(F)c(F)c(F)c1)N1CCN(CC(F)(F)F)c2ccccc21 [Entry 25]	≤ 5.00
O=C(Nc1cc(F)c(F)c(F)c1)N1CCN(CCC(F)(F)F)c2ccccc21 [Entry 26]	≤ 5.00
O=C(Nc1cc(F)c(F)c(F)c1)N1CCN(C(=O)c2ccccn2)c2ccccc21 [Entry 27]	≤ 5.00
O=C(Nc1cc(F)c(F)c(F)c1)N1CCN(C(=O)c2ccc(C(F)(F)F)cc2)c2ccccc21 [Entry 28]	≤ 5.00
CC(=O)N1CCN(C(=O)Nc2cc(F)c(F)c(F)c2)c2ccccc21 [Entry 29]	≤ 5.00
CC(C)(C)C(=O)N1CCN(C(=O)Nc2cc(F)c(F)c(F)c2)c2ccccc21 [Entry 30]	≤ 5.00
CC(C)C(=O)N1CCN(C(=O)Nc2cc(F)c(F)c(F)c2)c2ccccc21 [Entry 31]	5.33
O=C(Nc1cc(F)c(F)c(F)c1)N1CCN(C(=O)c2ccccc2)c2ccccc21 [Entry 32]	≤ 5.00

Structure (SMILES)	pEC50
O=C(Nc1cc(F)c(F)c(Cl)c1)N1CCNc2ccccc21 [Entry 33]	6.03
O=C(Nc1cc(F)c(F)c(F)c1)N1CCN(S(=O)(=O)c2ccccc2)c2ccccc21 [Entry 34]	≤ 5.00
CCCCOC(=O)N1CCN(C(=O)Nc2cc(F)c(F)c(F)c2)c2ccccc21 [Entry 35]	≤ 5.00
CC(C)COC(=O)N1CCN(C(=O)Nc2cc(F)c(F)c(F)c2)c2ccccc21 [Entry 36]	≤ 5.00
O=C(Nc1cc(F)c(F)c(F)c1)N1CCN(C(=O)OCc2ccccc2)c2ccccc21 [Entry 37]	≤ 5.00
O=C(Nc1cc(F)c(F)c(F)c1)N1CCNC2CCCCC21 (centres unmarked) [Entry 38]	≤ 5.00
O=C(Nc1ccc(F)c(Cl)c1)N1CCNC2CCCCC21 (centres unmarked) [Entry 40]	≤ 5.00
O=C(Nc1ccc(F)c(Cl)c1)N1CCOC2CCCCC21 (centres unmarked) [Entry 41]	≤ 5.00
O=C(Nc1ccc(F)c(Cl)c1)N1CCN(C(=O)Nc2ccc(F)c(Cl)c2)[C@H]2CCCC[C@@H]21 [Entry 42]	≤ 5.00
CC(C)(C)OC(=O)N1CCN(C(=O)Nc2ccc(F)c(Cl)c2)[C@H]2CCCC[C@@H]21 [Entry 43]	≤ 5.00
CC(C)(C)OC(=O)N1CCN(C(=O)Nc2ccc(F)c(Cl)c2)[C@@H]2CCCC[C@@H]21 [Entry 44]	≤ 5.00
O=C(Nc1ccc(F)c(Cl)c1)N1CCCC2CCCCC21 (centres unmarked) [Entry 46]	≤ 5.00
O=C(Nc1ccc(F)c(Cl)c1)N1CCN[C@H]2CCCC[C@H]21 [Entry 47]	≤ 5.00
O=C(Nc1ccc(F)c(Cl)c1)N1CCN(C(=O)Nc2ccc(F)c(Cl)c2)c2ccccc21 [Entry 48]	6.12
O=C(Nc1ccc(F)c(Cl)c1)N1CC2(CCCC2)Nc2ccccc21 [Entry 49]	≤ 5.00
CC1(C)CN(C(=O)Nc2ccc(F)c(Cl)c2)c2ccccc2N1 [Entry 50]	≤ 5.00
CC1CN(C(=O)Nc2ccc(F)c(Cl)c2)c2ccccc2N1 (centres unmarked) [Entry 51]	≤ 5.00
O=C(Nc1ccc(F)c(Cl)c1)N1CC(c2ccccc2)Nc2ccccc21 (centres unmarked) [Entry 52]	≤ 5.00
O=C(Nc1ccc(F)c(Cl)c1)N1CCS(=O)(=O)c2ccccc21 [Entry 53]	≤ 5.00
CC(C)(C)NC(=O)N1CCN(C(=O)Nc2ccc(F)c(Cl)c2)c2ccccc21 [Entry 54]	≤ 5.00
O=C1CN(C(=O)Nc2ccc(F)c(Cl)c2)C2CCCCC2N1 (centres unmarked) [Entry 56]	≤ 5.00
O=C(Nc1cccc(Cl)c1)N1CCN(C(=O)Nc2ccc(F)c(Cl)c2)c2ccccc21 [Entry 57]	6.19
O=C(Nc1cc(Cl)ccc1F)N1CCNc2ccccc21 [Entry 58]	6.11
O=C(Nc1cc(F)c(F)c(F)c1)N1CCN(C(=O)Nc2cc(F)c(F)c(F)c2)c2ccccc21 [Entry 59]	5.95
NC(=O)C1CN(C(=O)Nc2ccc(F)c(Cl)c2)c2ccccc2N1 (centres unmarked) [Entry 62]	≤ 5.00
O=C(Nc1ccc(F)c(Cl)c1)N1c2ccccc2NCC1c1ccccc1 (centres unmarked) [Entry 63]	6.11
CC1CNc2ccccc2N1C(=O)Nc1ccc(F)c(Cl)c1 (centres unmarked) [Entry 64]	5.36

Structure (SMILES)	pEC50
CC1CN(C(=O)Nc2ccc(F)c(Cl)c2)c2ccccc2N1C(=O)Nc1ccc(F)c(Cl)c1 (centres unmarked) [Entry 65]	5.89
CC(C)C1CN(C(=O)Nc2ccc(F)c(Cl)c2)c2ccccc2N1C(=O)NCc1ccc(F)c(F)c1 (centres unmarked) [Entry 66]	5.78
O=C(Nc1ccc(F)c(Cl)c1)N1CC(CN2CCOCC2)N(C(=O)Nc2ccc(F)c(Cl)c2)c2ccccc21 (centres unmarked) [Entry 67]	5.69
O=C(Nc1ccc(F)c(Cl)c1)N1CC(CN2CCC(O)CC2)N(C(=O)Nc2ccc(F)c(Cl)c2)c2ccccc21 (centres unmarked) [Entry 68]	≤ 5.00
O=C(Nc1ccc(F)c(Cl)c1)N1CC(CN2CCC(F)(F)C2)N(C(=O)Nc2ccc(F)c(Cl)c2)c2ccccc21 (centres unmarked) [Entry 69]	6.19
CN1CCN(CC2CN(C(=O)Nc3ccc(F)c(Cl)c3)c3ccccc3N2C(=O)Nc2ccc(F)c(Cl)c2)CC1 (centres unmarked) [Entry 70]	≤ 5.00
O=C(Nc1ccc(F)c(Cl)c1)N1CC(CN2CCCC(F)(F)C2)N(C(=O)Nc2ccc(F)c(Cl)c2)c2ccccc21 (centres unmarked) [Entry 72]	5.91
O=C1CC(c2ccccc2)N(C(=O)Nc2ccc(F)c(Cl)c2)c2ccccc21 (centres unmarked) [Entry 73]	5.54
O=C(Nc1ccc(F)c(Cl)c1)N1CC(CN2CCC(F)(F)C2)Nc2ccccc21 (centres unmarked) [Entry 76]	5.29
O=C(Nc1ccc(F)c(Cl)c1)N1c2ccccc2NCC1CN1CCC(F)(F)CC1 (centres unmarked) [Entry 77]	6.55
O=C(Nc1ccc(F)c(Cl)c1)N1CC(CN2CCC(F)(F)CC2)Nc2ccccc21 (centres unmarked) [Entry 78]	5.36
O=C(Nc1ccc(F)c(Cl)c1)N1c2ccccc2NCC1CN1CCC(F)(F)C1 (centres unmarked) [Entry 79]	5.77
CC(C)C1CNc2ccccc2N1C(=O)Nc1ccc(F)c(Cl)c1 (centres unmarked) [Entry 81]	5.46
O=C(Nc1ccc(F)c(Cl)c1)N1CCNc2cc(F)c(F)cc21 [Entry 82]	6.21
O=C(Nc1ccc(F)c(Cl)c1)N1CCN(C(=O)Nc2ccc(F)c(Cl)c2)c2cc(F)c(F)cc21 [Entry 83]	5.93
O=C1CC(c2ccc(F)cc2)N(C(=O)Nc2ccc(F)c(Cl)c2)c2ccccc21 (centres unmarked) [Entry 84]	5.63
O=C1CCN(C(=O)Nc2ccc(F)c(Cl)c2)c2ccc(Br)cc21 [Entry 85]	≤ 5.00
O=C1CCN(C(=O)Nc2ccc(F)c(Cl)c2)c2ccc(Cl)cc21 [Entry 86]	5.32
O=C(Nc1ccc(F)c(Cl)c1)N1CCNc2cc(OCc3ccccc3)ccc21 [Entry 87]	5.55
O=C(Nc1ccc(F)c(Cl)c1)N1C(c2ccccc2)CN[C@H]2CCCC[C@@H]21 (some centres unmarked) [Entry 88]	≤ 5.00
O=C(Nc1ccc(F)c(Cl)c1)N1c2ccccc2NCC1CN1CCOCC1 (centres unmarked) [Entry 89]	5.14
COC(=O)C1COCCN1CC1CNc2ccccc2N1C(=O)Nc1ccc(F)c(Cl)c1 (centres unmarked) [Entry 90]	5.66
O=C(O)C1COCCN1CC1CNc2ccccc2N1C(=O)Nc1ccc(F)c(Cl)c1 (centres unmarked) [Entry 91]	≤ 5.00
O=C(Nc1ccc(F)c(Cl)c1)N1CC(CN2CCOCC2)Nc2ccccc21 (centres unmarked) [Entry 96]	≤ 5.00
COC(=O)[C@H]1CC(F)(F)CN1CC1CNc2ccccc2N1C(=O)Nc1ccc(F)c(Cl)c1 (some centres unmarked) [Entry 97]	≤ 5.00
O=C(O)[C@H]1CC(F)(F)CN1CC1CNc2ccccc2N1C(=O)Nc1ccc(F)c(Cl)c1 (some centres unmarked) [Entry 98]	≤ 5.00
